{
  "source": "paper PMC4965148",
  "about": "(PLoS ONE, 2016)",
  "key": {"[1]": {"biological_target": "Muscarinic M3 (Homo sapiens, UniProt P20309)", "assay": "Selectivity panel, binding", "details": "read-out: % inhibition @ 10 µM"}, "[2]": {"biological_target": "T1, HEK293/human α7 nAChR cells (Homo sapiens, UniProt P36544)", "T1 construct": "expressed in transfected cells", "T1 sequence (P36544 23-502)": "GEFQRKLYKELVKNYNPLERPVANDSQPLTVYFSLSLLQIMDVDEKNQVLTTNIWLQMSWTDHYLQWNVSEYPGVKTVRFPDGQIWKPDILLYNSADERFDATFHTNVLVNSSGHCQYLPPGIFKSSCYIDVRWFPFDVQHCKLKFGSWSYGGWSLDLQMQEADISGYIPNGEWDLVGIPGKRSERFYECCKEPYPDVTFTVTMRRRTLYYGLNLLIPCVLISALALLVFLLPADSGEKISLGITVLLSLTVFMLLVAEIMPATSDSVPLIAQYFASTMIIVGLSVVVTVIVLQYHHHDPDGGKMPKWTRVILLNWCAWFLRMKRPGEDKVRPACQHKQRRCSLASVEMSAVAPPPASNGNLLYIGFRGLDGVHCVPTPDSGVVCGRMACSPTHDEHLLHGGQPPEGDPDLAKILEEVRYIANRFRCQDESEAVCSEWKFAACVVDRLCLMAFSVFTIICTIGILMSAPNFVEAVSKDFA", "assay": "Whole cell voltage clamp electrophysiology", "format": "cell-based", "details": "for Net Charge (Current Area) normalized to 300 µM ACh / Peak Current normalized to 3 mM ACh: individual cells"}, "[3]": {"biological_target": "MAO-A (Homo sapiens, UniProt P21397)", "sequence (P21397 whole entry)": "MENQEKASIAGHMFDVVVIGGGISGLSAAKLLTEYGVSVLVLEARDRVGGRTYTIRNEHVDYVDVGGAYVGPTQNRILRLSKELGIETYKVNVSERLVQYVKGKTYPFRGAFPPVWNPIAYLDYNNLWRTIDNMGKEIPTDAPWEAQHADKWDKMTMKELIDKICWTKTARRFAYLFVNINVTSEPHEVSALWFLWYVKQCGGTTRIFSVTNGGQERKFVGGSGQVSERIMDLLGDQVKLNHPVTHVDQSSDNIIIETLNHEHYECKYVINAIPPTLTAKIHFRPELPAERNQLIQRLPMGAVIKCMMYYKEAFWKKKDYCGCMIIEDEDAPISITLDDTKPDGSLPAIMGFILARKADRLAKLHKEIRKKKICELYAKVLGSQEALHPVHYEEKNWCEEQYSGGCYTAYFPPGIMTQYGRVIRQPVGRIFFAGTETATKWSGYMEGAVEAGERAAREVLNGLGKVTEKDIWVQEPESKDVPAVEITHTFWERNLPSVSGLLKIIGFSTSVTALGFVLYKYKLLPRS", "assay": "Selectivity panel, enzyme", "format": "biochemical"}, "[4]": {"tested_on": "neonatal PCP treated rats", "assay": "Rat neonatal PCP ID/ED set shifting", "format": "in vivo", "details": "for Number of trials to criteria, Complex discrimination / Number of trials to criteria, Simple discrimination: individual rats", "experimental": "Male pups were treated with either 0.9% saline (sham) or PCP (20 mg/kg, sc) on post-natal days 7, 9 and 11 and then singly housed after weaning on postnatal days 21–25. All studies were conducted in adult animals (2–4 months of age) using methods adapted from. Rats were food-restricted (15g/rat/day) for 7 days prior to the initiation of training and throughout the remainder of the study. At the time of testing the average (± SEM) body weight ranged from 278 ± 6g to 296 ± 9g across the individual treatment groups. The animals then received 3 days of training during which they were handled, habituated to the test arena (5 min/day) and trained to dig in a ceramic pot for a food reward (Honey Nut Cheerios). The testing arena was constructed of black plastic (45 cm wide x 60 cm long x 45 cm tall) and divided into 3 compartments, i.e. a separate starting box and 2 choice boxes separated by an opaque wall. Each choice box contained a terracotta (4 inch diameter) pot, filled with digging media and with scented oil applied to the rim. At the beginning of each trial the animal was placed in the start box, the sliding door was opened and the subject was allowed to freely explore the two choice boxes. Both pots were initially baited with food until the subject reliably retrieved the food rewards from each. Thereafter, rats were trained to discriminate between either 2 distinct odors (stimulus dimension 1) or 2 distinct digging media (stimulus dimension 2) in order to correctly identify the baited pot. On the first trial only, rats were allowed to dig in both pots if an error was made (with the trial scored as an error trial). Thereafter animals were allowed to dig in one pot only per trial and were tested until the performance criterion of 6 consecutive correct choices was achieved. Each trial was limited to a maximum duration of 5 min and any subject not achieving performance criteria was eliminated from the study. On completion of a successful odor discrimination animals were then trained to successfully complete a simple discrimination trial based on digging media. Odor and digging media used in these initial training trials were not used again for ID/ED testing. […] All subjects were brought to the experimental laboratory at least 30 min prior to behavioral assessment. To determine ID/ED performance rats were tested for their ability to successfully complete a series of discriminations based on either odor or digging media. In all instances subjects were pre-assigned one stimulus dimension (i.e. digging media or odor) as the correct predictor of the food reward for the first series of discriminations. Only at the final stage i.e. the extra-dimensional shift (EDS) was the subject required to shift attention away from the assigned stimulus dimension to a different dimension (e.g. odor to digging media) to correctly identify the baited pot. The sequence of discriminations was a follows: simple discrimination (SD), compound discrimination (CD), intra-dimensional shift 1 (IDS1), intra-dimensional shift 2 (IDS2), intra-dimensional shift 2 reversal (IDS2rev) and EDS and examples of exemplars are shown in S1 Table. For all discrimination stages successful completion was defined as 6 consecutive correct trials at which point subjects progressed to the next phase of the task. The test session ended when either i) all discrimination phases were successfully completed or ii) testing had proceeded for 120 min. The average duration of a test session was 1 h and all subjects completed the ID/ED task within the allotted timeframe."}, "[5]": {"biological_target": "T2, rat α3β4 nAChR (Rattus norvegicus, UniProt P04757+P12392)", "T2 construct": "expressed in transfected cells; host or cells: HEK293 (made by Bristol-Myers Squibb)", "T2 sequence (P04757 26-499)": "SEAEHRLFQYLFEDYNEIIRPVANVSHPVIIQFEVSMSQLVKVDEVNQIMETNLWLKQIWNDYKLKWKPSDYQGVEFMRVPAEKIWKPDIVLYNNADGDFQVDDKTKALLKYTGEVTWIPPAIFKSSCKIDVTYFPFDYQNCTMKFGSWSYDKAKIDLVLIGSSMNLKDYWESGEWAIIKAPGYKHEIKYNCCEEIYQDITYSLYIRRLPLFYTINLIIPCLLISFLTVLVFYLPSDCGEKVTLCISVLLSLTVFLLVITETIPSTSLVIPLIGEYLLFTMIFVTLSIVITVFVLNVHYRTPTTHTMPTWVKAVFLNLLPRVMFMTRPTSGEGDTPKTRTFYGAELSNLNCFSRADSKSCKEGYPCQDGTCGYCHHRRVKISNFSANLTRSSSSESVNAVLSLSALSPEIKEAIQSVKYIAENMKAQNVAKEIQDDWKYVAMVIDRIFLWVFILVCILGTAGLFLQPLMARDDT", "T2 sequence (P12392 21-495)": "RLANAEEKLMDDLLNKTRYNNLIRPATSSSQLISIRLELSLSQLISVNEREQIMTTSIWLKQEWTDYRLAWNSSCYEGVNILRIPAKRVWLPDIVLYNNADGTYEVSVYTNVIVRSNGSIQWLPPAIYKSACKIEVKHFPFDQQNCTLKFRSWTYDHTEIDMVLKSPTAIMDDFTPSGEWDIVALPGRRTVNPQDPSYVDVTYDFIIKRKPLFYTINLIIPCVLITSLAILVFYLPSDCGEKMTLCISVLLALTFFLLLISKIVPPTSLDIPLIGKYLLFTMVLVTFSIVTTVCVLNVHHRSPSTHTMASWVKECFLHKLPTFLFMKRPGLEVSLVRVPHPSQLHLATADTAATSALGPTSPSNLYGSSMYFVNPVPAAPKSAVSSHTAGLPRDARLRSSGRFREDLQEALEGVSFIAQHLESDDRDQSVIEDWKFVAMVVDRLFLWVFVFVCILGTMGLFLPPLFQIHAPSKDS", "assay": "Ca2+ flux (FLIPR) agonist/antagonist assay", "format": "cell-based", "details": "FLIPR antagonist mode, EC90 ACh"}, "[6]": {"biological_target": "T3, rat α4β2 nAChR (Rattus norvegicus, UniProt P09483+P12390)", "T3 construct": "expressed in transfected cells; host or cells: HEK293 (made by Bristol-Myers Squibb)", "assay": "Ca2+ flux (FLIPR) agonist/antagonist assay", "format": "cell-based", "details": "FLIPR antagonist mode, EC90 ACh"}, "[7]": {"tested_on": "MK-801 treated mice", "assay": "Mouse MK-801 two trial Y maze", "format": "in vivo", "experimental": "Testing was conducted in a grey polyethylene plastic Y maze that had 3 arms, 2 of 40 cm length (test arms) and 1 of 20 cm length (start arm). Each arm had distinct optical cues covering the walls and a removable partition to occlude the arm as needed. The test consisted of a forced choice trial followed by a free-choice trial. For the forced choice trial the start arm and one test arm was open with access to the 2nd test arm blocked by the partition. Individual subjects were placed in the start arm and allowed to explore the open test arm for 8 min after which they were removed from the maze, placed in a holding cage and the maze was cleaned. Animals were then immediately placed back on the Y maze for the free choice trial and allowed to explore both open test arms for 4 min. The protocol was thus designed for minimal delay between the forced choice and free choice trials. […] For each subject the % time exploring the novel arm during the free choice trial was calculated using the formula: % novel time = novel time/(novel + familiar time) x 100."}, "[8]": {"biological_target": "Muscarinic M2 (Homo sapiens, UniProt P08172)", "sequence (P08172 whole entry)": "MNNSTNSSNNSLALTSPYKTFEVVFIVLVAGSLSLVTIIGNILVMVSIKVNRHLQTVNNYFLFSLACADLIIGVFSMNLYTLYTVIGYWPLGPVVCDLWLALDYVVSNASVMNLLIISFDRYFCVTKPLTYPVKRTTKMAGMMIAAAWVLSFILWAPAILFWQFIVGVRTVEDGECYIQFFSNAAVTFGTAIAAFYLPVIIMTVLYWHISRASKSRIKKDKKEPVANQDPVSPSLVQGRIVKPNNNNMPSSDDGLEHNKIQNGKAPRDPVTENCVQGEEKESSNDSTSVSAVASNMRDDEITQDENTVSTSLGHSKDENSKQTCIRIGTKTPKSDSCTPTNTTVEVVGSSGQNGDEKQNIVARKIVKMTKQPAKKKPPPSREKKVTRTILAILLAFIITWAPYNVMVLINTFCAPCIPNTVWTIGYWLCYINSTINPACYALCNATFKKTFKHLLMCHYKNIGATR", "assay": "Selectivity panel, binding"}, "[9]": {"biological_target": "Opiate Kappa (Homo sapiens, UniProt P41145)", "sequence (P41145 whole entry)": "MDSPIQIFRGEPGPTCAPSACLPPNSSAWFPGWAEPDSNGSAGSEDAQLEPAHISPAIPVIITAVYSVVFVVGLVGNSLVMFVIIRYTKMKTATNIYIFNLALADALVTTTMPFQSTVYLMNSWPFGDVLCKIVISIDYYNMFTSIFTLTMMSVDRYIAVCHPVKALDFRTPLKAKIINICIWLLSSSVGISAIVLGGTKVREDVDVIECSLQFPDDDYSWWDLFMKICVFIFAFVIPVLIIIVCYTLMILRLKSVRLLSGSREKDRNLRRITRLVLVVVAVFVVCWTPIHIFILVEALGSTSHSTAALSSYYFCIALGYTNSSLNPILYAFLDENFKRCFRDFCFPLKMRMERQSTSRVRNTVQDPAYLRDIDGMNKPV", "assay": "Selectivity panel, binding"}, "[10]": {"biological_target": "Adrenergic α1B (Homo sapiens, UniProt P35368)", "sequence (P35368 whole entry)": "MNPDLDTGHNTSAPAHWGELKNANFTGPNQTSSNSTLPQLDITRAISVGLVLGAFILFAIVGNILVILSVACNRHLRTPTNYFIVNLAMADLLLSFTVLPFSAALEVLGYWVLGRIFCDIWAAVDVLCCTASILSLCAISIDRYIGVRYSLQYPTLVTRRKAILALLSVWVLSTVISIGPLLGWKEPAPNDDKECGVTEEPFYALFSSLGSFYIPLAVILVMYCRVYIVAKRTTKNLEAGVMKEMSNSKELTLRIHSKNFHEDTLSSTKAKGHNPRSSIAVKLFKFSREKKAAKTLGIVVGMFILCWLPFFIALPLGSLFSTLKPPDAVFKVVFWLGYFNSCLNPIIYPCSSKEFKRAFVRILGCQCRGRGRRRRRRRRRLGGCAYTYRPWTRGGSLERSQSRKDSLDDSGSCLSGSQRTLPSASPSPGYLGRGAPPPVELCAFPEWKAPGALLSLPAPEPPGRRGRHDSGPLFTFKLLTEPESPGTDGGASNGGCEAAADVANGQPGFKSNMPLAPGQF", "assay": "Selectivity panel, binding"}, "[11]": {"biological_target": "NMDA NR1/2A (Homo sapiens, UniProt Q05586+Q12879)", "sequence (Q12879 23-1464, other chains not shown)": "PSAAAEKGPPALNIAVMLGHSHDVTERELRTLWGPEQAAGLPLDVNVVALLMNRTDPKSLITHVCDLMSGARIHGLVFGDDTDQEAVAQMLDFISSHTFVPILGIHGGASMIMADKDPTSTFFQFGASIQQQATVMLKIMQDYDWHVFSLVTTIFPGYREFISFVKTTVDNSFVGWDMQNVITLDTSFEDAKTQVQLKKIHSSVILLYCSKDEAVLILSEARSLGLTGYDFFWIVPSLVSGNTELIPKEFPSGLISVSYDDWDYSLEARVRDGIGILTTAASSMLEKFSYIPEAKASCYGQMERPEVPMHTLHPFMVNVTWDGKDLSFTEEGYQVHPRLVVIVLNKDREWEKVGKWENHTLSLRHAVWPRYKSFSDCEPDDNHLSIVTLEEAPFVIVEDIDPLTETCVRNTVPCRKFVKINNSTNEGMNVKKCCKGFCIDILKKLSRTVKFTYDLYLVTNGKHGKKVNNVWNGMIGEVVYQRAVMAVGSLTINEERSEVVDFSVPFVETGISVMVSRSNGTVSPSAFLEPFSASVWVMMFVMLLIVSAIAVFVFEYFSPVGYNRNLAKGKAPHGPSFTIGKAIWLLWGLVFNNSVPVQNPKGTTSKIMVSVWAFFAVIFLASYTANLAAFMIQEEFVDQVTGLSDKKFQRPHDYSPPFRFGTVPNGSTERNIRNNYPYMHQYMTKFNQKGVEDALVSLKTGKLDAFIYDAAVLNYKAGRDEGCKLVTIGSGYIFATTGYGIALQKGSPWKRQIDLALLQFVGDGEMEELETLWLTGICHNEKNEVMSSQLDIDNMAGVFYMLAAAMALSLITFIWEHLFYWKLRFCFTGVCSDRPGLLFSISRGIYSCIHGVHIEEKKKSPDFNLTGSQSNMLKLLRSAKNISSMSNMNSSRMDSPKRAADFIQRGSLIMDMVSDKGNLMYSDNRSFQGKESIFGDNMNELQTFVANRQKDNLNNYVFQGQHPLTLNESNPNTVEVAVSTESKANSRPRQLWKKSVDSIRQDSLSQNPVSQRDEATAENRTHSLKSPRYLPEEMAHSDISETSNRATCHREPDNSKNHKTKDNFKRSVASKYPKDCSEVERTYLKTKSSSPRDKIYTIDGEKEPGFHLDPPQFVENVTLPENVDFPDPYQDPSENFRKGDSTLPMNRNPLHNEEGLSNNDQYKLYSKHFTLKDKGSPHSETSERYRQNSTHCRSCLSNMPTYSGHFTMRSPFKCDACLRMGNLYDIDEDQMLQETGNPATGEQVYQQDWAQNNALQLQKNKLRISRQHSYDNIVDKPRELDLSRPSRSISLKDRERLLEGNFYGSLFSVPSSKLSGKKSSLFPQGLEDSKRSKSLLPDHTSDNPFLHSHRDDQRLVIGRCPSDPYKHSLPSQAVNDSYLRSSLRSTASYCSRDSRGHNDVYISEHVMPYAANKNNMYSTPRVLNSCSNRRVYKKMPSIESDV", "assay": "Selectivity panel, functional", "format": "cell-based"}, "[12]": {"biological_target": "5-HT2A (Homo sapiens, UniProt P28223)", "assay": "Selectivity panel, functional", "format": "cell-based"}, "[13]": {"biological_target": "5-HT2B (Homo sapiens, UniProt P41595)", "assay": "Selectivity panel, functional", "format": "cell-based"}, "[14]": {"biological_target": "T4, rat α1β1δε nAChR (Rattus norvegicus, UniProt P09660+P25108+P25109+P25110)", "T4 construct": "expressed in transfected cells; host or cells: HEK293 (made by Bristol-Myers Squibb)", "assay": "Ca2+ flux (FLIPR) agonist/antagonist assay", "format": "cell-based", "details": "FLIPR antagonist mode, EC90 ACh"}},
  "note": "Where “and” joins values, the source holds several entries; their conditions need not be identical. Equal entries are not always repeated. Entries after “also recorded” stand apart in the source; their conditions may differ.",
  "data": [
    {"smiles": "c1cn(-c2cc(NC3=NC[C@@]4(CN5CCC4CC5)O3)ncn2)cn1", "note": "[BMS-933043, (2R)-N-(6-(1H-imidazol-1-yl)-4-pyrimidinyl)-4'H-spiro[4-azabicyclo[2.2.2]octane-2,5'-[1,3]oxazol]-2'-amine]", "values": [
      {"measurement": "inhibition at 10 µM", "setting": "[1]", "result": 18, "unit": "%"},
      {"measurement": "EC50", "setting": "[2]", "result": "0.29 ± 0.01", "unit": "µM"},
      {"measurement": "Net Charge (Current Area) normalized to 300 µM ACh", "setting": "[2]; 0.1 µM", "result": "0.01982 and 0.01318 and 0.03866 and 0.03782 and 0.02283 and 0.01327 and 0.03856"},
      {"measurement": "Peak Current normalized to 3 mM ACh", "setting": "[2]; 0.1 µM", "result": "0.005961 and 0.006675 and 0.008382 and 0.007317 and 0.006875 and 0.005721 and 0.00606"},
      {"measurement": "Net Charge (Current Area) normalized to 300 µM ACh", "setting": "[2]; 0.3 µM", "result": "0.3496 and 0.3624 and 0.3212 and 0.3215 and 0.2954 and 0.3576 and 0.4143"},
      {"measurement": "Peak Current normalized to 3 mM ACh", "setting": "[2]; 0.3 µM", "result": "0.02637 and 0.02303 and 0.02389 and 0.02438 and 0.0295 and 0.03259 and 0.02737"},
      {"measurement": "Net Charge (Current Area) normalized to 300 µM ACh", "setting": "[2]; 1 µM", "result": "0.6952 and 0.6304 and 0.6554 and 0.6122 and 0.619 and 0.6592 and 0.8129"},
      {"measurement": "Peak Current normalized to 3 mM ACh", "setting": "[2]; 1 µM", "result": "0.05479 and 0.03294 and 0.04392 and 0.05131 and 0.08504 and 0.08024 and 0.07272"},
      {"measurement": "Net Charge (Current Area) normalized to 300 µM ACh", "setting": "[2]; 3 µM", "result": "0.7025 and 0.6903 and 0.6991 and 0.888 and 0.7947 and 0.7791 and 0.7655"},
      {"measurement": "Peak Current normalized to 3 mM ACh", "setting": "[2]; 3 µM", "result": "0.126 and 0.0997 and 0.1092 and 0.09913 and 0.1966 and 0.202 and 0.183"},
      {"measurement": "Net Charge (Current Area) normalized to 300 µM ACh", "setting": "[2]; 10 µM", "result": "0.8035 and 0.7537 and 0.7969 and 0.7637 and 0.7224 and 0.6788 and 0.8823"},
      {"measurement": "Peak Current normalized to 3 mM ACh", "setting": "[2]; 10 µM", "result": "0.217 and 0.1532 and 0.1702 and 0.1779 and 0.3334 and 0.2987 and 0.3004"},
      {"measurement": "Mean ± SEM Net Charge Ymax", "setting": "[2]; Human, normalized to 300 μM ACh", "result": "0.78 ± 0.004"},
      {"measurement": "Mean ± SEM Peak Current Ymaxobs @ 10 μM", "setting": "[2]; Human, normalized to 3 mM ACh", "result": "0.24 ± 0.03"},
      {"measurement": "IC50", "setting": "[3]", "result": "> 30", "unit": "µM"},
      {"measurement": "EDS performance in neonatal PCP treated rats", "setting": "[4]; 0.1–3 mg/kg po", "result": "significantly improved EDS performance; also recorded: completely reversed by all doses"},
      {"measurement": "Number of trials to criteria, Complex discrimination", "setting": "[4]; PCP/0.1 mg/kg po, 0.1 mg/kg", "result": "6 (2×) and 16 and 7 (2×) and 8 (2×) and 21 and 19"},
      {"measurement": "Number of trials to criteria, Simple discrimination", "setting": "[4]; PCP/0.1 mg/kg po, 0.1 mg/kg", "result": "7 (3×) and 11 and 9 and 8 (2×) and 10 and 6"},
      {"measurement": "Number of trials to criteria, Complex discrimination", "setting": "[4]; PCP/0.3 mg/kg po, 0.3 mg/kg", "result": "18 and 10 (2×) and 7 and 6 (3×) and 8 and 16"},
      {"measurement": "Number of trials to criteria, Simple discrimination", "setting": "[4]; PCP/0.3 mg/kg po, 0.3 mg/kg", "result": "10 and 15 and 13 and 8 and 9 and 12 and 6 and 19 and 7"},
      {"measurement": "Number of trials to criteria, Complex discrimination", "setting": "[4]; PCP/1 mg/kg po, 1 mg/kg", "result": "6 (2×) and 11 (2×) and 7 (2×) and 13 and 14 (2×)"},
      {"measurement": "Number of trials to criteria, Simple discrimination", "setting": "[4]; PCP/1 mg/kg po, 1 mg/kg", "result": "6 (3×) and 12 (2×) and 13 and 11 and 8 and 9"},
      {"measurement": "Number of trials to criteria, Complex discrimination", "setting": "[4]; PCP/3 mg/kg po, 3 mg/kg", "result": "6 (2×) and 8 and 16 and 10 (2×) and 15 and 17 and 11"},
      {"measurement": "Number of trials to criteria, Simple discrimination", "setting": "[4]; PCP/3 mg/kg po, 3 mg/kg", "result": "7 (4×) and 6 (2×) and 16 (2×) and 9"},
      {"measurement": "Active dose range, Neonatal PCP ID/ED", "setting": "[4]; po", "result": "0.1–3.0 (po) mg/kg"},
      {"measurement": "longer time to complete the EDS in neonatal PCP treated rats", "setting": "[4]; po", "result": "attenuated"},
      {"measurement": "IC50", "setting": "[5]", "result": "> 30", "unit": "µM"},
      {"measurement": "IC50", "setting": "[6]", "result": "> 30", "unit": "µM"},
      {"measurement": "time spent in the novel arm in MK-801-treated mice", "setting": "[7]; doses of 1, 3 and 10 mg/kg sc", "result": "significantly increased time spent in the novel arm"},
      {"measurement": "Active dose range, MK-801 Y maze", "setting": "[7]; sc", "result": "1–10 (sc) mg/kg"},
      {"measurement": "IC50", "setting": "[8]", "result": 19.1, "unit": "µM"},
      {"measurement": "IC50", "setting": "[9]", "result": "> 30", "unit": "µM"},
      {"measurement": "IC50", "setting": "[10]", "result": "> 30", "unit": "µM"},
      {"measurement": "IC50", "setting": "[11]", "result": "> 30", "unit": "µM"},
      {"measurement": "EC50", "setting": "[12]", "result": "> 10", "unit": "µM"},
      {"measurement": "EC50", "setting": "[13]", "result": "> 10", "unit": "µM"},
      {"measurement": "IC50", "setting": "[14]", "result": "> 30", "unit": "µM"}
    ]}
  ]
}
